Measurements reported in ChEMBL document CHEMBL1201862, “PubChem BioAssay data set” (2004).
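Following 48 hours of exposure in 96-well plates, responses at five concentrations were used to interpolate endpoints linearly. GI50: concentration for 50% inhibition of growth.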 The source made the active and inactive calls. Cut-off read from the data, not from the text of the source: active = GI50 up to about 1.1 µM and inactive = higher.

What was measured:
Test in all cases: inhibition of tumour cell growth, NCI panel, 48 h
HCT-116 = tested on: HCT-116
SK-OV-3 = tested on: SK-OV-3
MDA-MB-435 = tested on: MDA-MB-435
TK-10 = tested on: TK-10
HOP-62 = tested on: HOP-62
HOP-92 = tested on: HOP-92
U-251 = tested on: U-251
UACC-257 = tested on: UACC-257
A549 = tested on: A549
RPMI-8226 = tested on: RPMI-8226
SW-620 = tested on: SW-620
LOX IMVI = tested on: LOX IMVI
SF-268 = tested on: SF-268
NCI/ADR-RES = tested on: NCI/ADR-RES
OVCAR-8 = tested on: OVCAR-8
HT-29 = tested on: HT-29
SK-MEL-28 = tested on: SK-MEL-28
UO-31 = tested on: UO-31
NCI-H460 = tested on: NCI-H460

Measured: GI50

CO/C(N)=C(C#N)/N=C/c1cccnc1
inactive: HCT-116 > 100 µM | SK-OV-3 > 100 µM | MDA-MB-435 > 100 µM | TK-10 > 100 µM | HOP-62 > 100 µM | HOP-92 > 100 µM | U-251 > 100 µM | UACC-257 > 100 µM | A549 > 100 µM | RPMI-8226 > 100 µM | SW-620 > 100 µM | LOX IMVI > 100 µM | SF-268 > 100 µM | NCI/ADR-RES > 100 µM | OVCAR-8 > 100 µM | HT-29 > 100 µM | SK-MEL-28 > 100 µM

OCC1NC(COC2OC(CO)C(O)C(O)C2O)C(O)C(O)C1O (stereo not drawn)
inactive: HCT-116 > 100 µM | MDA-MB-435 > 100 µM | TK-10 > 100 µM | UO-31 > 100 µM | HOP-92 > 100 µM | U-251 > 100 µM | UACC-257 > 100 µM | A549 > 100 µM | RPMI-8226 > 100 µM | SW-620 > 100 µM | NCI-H460 > 100 µM | SF-268 > 100 µM | NCI/ADR-RES > 100 µM | OVCAR-8 > 100 µM | HT-29 > 100 µM | SK-MEL-28 > 100 µM

CC(C)[Si](OC12CCC(CC1O)CC2C(=O)O)(C(C)C)C(C)C (stereo not drawn)
inactive: HCT-116 10.7 µM | SK-OV-3 13.9 µM | MDA-MB-435 14.5 µM | TK-10 3.88 µM | HOP-62 14.4 µM | UO-31 13.2 µM | HOP-92 7.31 µM | U-251 14.6 µM | UACC-257 16.7 µM | A549 14.5 µM | RPMI-8226 10.1 µM | SW-620 14.9 µM | NCI-H460 7.76 µM | SF-268 12.7 µM | NCI/ADR-RES 13.2 µM | OVCAR-8 16.1 µM | HT-29 11.7 µM | SK-MEL-28 11.2 µM

COc1ccc(NC(=S)C#N)cc1
inactive: HCT-116 > 100 µM | SK-OV-3 > 100 µM | MDA-MB-435 > 100 µM | TK-10 > 100 µM | HOP-62 > 100 µM | HOP-92 97.3 µM | U-251 > 100 µM | UACC-257 > 100 µM | A549 > 100 µM | RPMI-8226 38.7 µM | SW-620 > 100 µM | LOX IMVI > 100 µM | SF-268 > 100 µM | NCI/ADR-RES > 100 µM | OVCAR-8 > 100 µM | HT-29 > 100 µM | SK-MEL-28 > 100 µM
